Tests used:
Format in all cases: in vivo
Design in all cases: scale not given here
Conditions in all cases: 21st day after application
slender amaranth (Am) [1] = test: Test Example 6: crop plant selectivity by upland field soil treatment (soybean), herbicidal effects
In short: (§1)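 Greenhouse pot test with soil-applied compound after sowing soybean and weeds in sand; effects graded on day 21 after application.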

pale smartweed (Po) [2] = test: as above
In short: as §1

China jute (Ab) = test: as above
In short: as §1

[3] = tested on: common lambsquarters (Ch); test: as above
In short: as §1

green foxtail (Se) [4] = test: as above
In short: as §1

slender amaranth (Am) [5] = test: Test Example 7: crop plant selectivity by upland field soil treatment (corn), herbicidal effects
In short: (§2)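 Seeds of corn and of each weed species are sown in a pot of sand and covered with soil. The compound is applied, and the pots are kept in a greenhouse. On the 21st day, weed control and crop injury are judged by set criteria.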

corn (Ze) = test: Test Example 7: crop plant selectivity by upland field soil treatment (corn), phytotoxicity
In short: as §2

slender amaranth (Am) [6] = test: Test Example 5: crop plant selectivity by upland field soil treatment (wheat), herbicidal effects
In short: (§3)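 Seeds sown in pots of sand and covered with soil. Soil treatment applied. Plants cultured in a greenhouse. Effects rated by standard scale after 21 days.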

pale smartweed (Po) [7] = test: as above
In short: as §3

green foxtail (Se) [8] = test: as above
In short: as §3

Compound | Herbicidal effects Am (slender amaranth (Am) [1]; dose 1.6 g ai/10a) | Herbicidal effects Am (slender amaranth (Am) [1]; dose 6.3 g ai/10a) | Herbicidal effects Po (pale smartweed (Po) [2]; dose 1.6 g ai/10a) | Herbicidal effects Po (pale smartweed (Po) [2]; dose 6.3 g ai/10a) | Herbicidal effects Ab (China jute (Ab); dose 1.6 g ai/10a) | Herbicidal effects Ab (China jute (Ab); dose 6.3 g ai/10a) | Herbicidal effects Ch ([3]; dose 1.6 g ai/10a) | Herbicidal effects Ch ([3]; dose 6.3 g ai/10a) | Herbicidal effects Se (green foxtail (Se) [4]; dose 1.6 g ai/10a) | Herbicidal effects Se (green foxtail (Se) [4]; dose 6.3 g ai/10a) | Herbicidal effects Am (slender amaranth (Am) [5]; dose 1.6 g ai/10a) | Herbicidal effects Am (slender amaranth (Am) [5]; dose 6.3 g ai/10a) | Phytotoxicity Ze (corn (Ze); dose 1.6 g ai/10a) | Phytotoxicity Ze (corn (Ze); dose 6.3 g ai/10a) | Herbicidal effects Am (slender amaranth (Am) [6]; dose 6.3 g ai/10a) | Herbicidal effects Po (pale smartweed (Po) [7]; dose 6.3 g ai/10a) | Herbicidal effects Se (green foxtail (Se) [8]; dose 6.3 g ai/10a) | Herbicidal effects Am (slender amaranth (Am) [6]; dose 1.6 g ai/10a) | Herbicidal effects Po (pale smartweed (Po) [7]; dose 1.6 g ai/10a) | Herbicidal effects Se (green foxtail (Se) [8]; dose 1.6 g ai/10a)
Cc1cc(-c2ccc(C(F)(F)F)n(C)c2=O)c(F)cc1Cl [1-90] | 5 | 5 | 5 | 5 | 5 | 5 | 5 | 5 | 5 | 5 | 5 | 5 | 1 | 2 | 5 | 5 | 5 |  |  | 
COCSc1cc(-c2ccc(C(F)(F)F)n(C)c2=O)c(F)cc1Cl [1-91] | 5 | 5 | 5 | 5 | 5 | 5 | 5 | 5 | 5 | 5 | 5 | 5 | 1 | 2 |  |  |  | 5 | 5 | 5
Cn1c(C(F)(F)F)ccc(-c2cc(Cl)c(Cl)cc2F)c1=O [1-136] | 5 | 5 | 5 | 5 | 4 | 5 | 5 | 5 | 5 | 5 | 5 |  | 1 |  | 5 | 5 | 5 | 5 | 5 | 5
Cn1c(C(F)(F)F)ccc(-c2cc(OCC(F)(F)F)c(Cl)cc2F)c1=O [1-155] | 5 | 5 | 5 | 5 | 5 | 5 | 5 | 5 | 5 | 5 | 5 | 5 | 0 | 0 | 5 | 5 | 5 | 5 | 5 | 5
Cn1c(C(F)(F)F)ccc(-c2cc(OCC3CC3)c(Cl)cc2F)c1=O [1-160] |  | 5 |  | 5 |  | 5 |  | 5 |  | 5 |  | 5 |  | 1 | 5 | 5 | 5 |  |  | 
Cn1c(C(F)(F)F)ccc(-c2cc(OCCCl)c(Cl)cc2F)c1=O [1-171] |  | 5 |  | 5 |  | 5 |  | 5 |  | 5 |  | 5 |  | 0 | 5 | 5 | 5 |  |  | 
C#CC(C)Oc1cc(Cl)cc(F)c1-c1ccc(C(F)(F)F)n(C)c1=O (centres unmarked) [1′-5] | 5 | 5 | 5 | 5 | 5 | 5 | 5 | 5 | 4 | 5 | 5 | 5 | 1 | 2 | 5 | 5 | 5 | 5 | 5 | 4
C=CC(C)Oc1cc(-c2ccc(C(F)(F)F)n(C)c2=O)c(F)cc1Cl (centres unmarked) [Compound 1-182] |  | 5 |  | 5 |  | 5 |  | 5 |  | 5 |  | 5 |  | 1 | 5 | 5 | 5 |  |  | 
CCON=Cc1cc(-c2ccc(C(F)(F)F)n(C)c2=O)c(F)cc1Cl [Compound 1-187] |  | 5 |  | 5 |  | 5 |  | 5 |  | 5 |  | 5 |  | 1 | 5 | 5 | 5 |  |  | 
CCOC(=O)CON=Cc1cc(-c2ccc(C(F)(F)F)n(C)c2=O)c(F)cc1Cl [Compound 1-191] |  | 5 |  | 5 |  | 5 |  | 5 |  | 5 |  | 5 |  | 1 | 5 | 5 | 5 |  |  | 
C=CC(O)c1cc(-c2ccc(C(F)(F)F)n(C)c2=O)c(F)cc1Cl (centres unmarked) [Compound 1-197] |  | 5 |  | 5 |  | 5 |  | 5 |  | 5 |  | 5 |  | 1 | 5 | 5 | 5 |  |  | 
C#CC(O)c1cc(-c2ccc(C(F)(F)F)n(C)c2=O)c(F)cc1Cl (centres unmarked) [Compound 1-202] | 5 |  | 5 |  | 5 |  | 5 |  | 5 |  | 5 |  | 1 |  |  |  |  | 5 | 5 | 5
CSCOc1cc(-c2ccc(C(F)(F)F)n(C)c2=O)c(F)cc1Cl [Compound 1-208] |  | 5 |  | 4 |  | 5 |  | 5 |  | 5 |  | 5 |  | 1 | 5 | 4 | 5 |  |  | 
C#CCN1C(=O)COc2cc(Cl)c(-c3ccc(C(F)(F)F)n(C)c3=O)cc21 [Compound 2-25] | 5 | 5 | 5 | 5 | 5 | 5 | 5 | 5 | 5 | 5 | 5 |  | 1 |  | 5 | 5 | 5 | 5 | 5 | 5
C=CCN1C(=O)COc2cc(Cl)c(-c3ccc(C(F)(F)F)n(C)c3=O)cc21 [Compound 2-26] |  | 5 |  | 5 |  | 5 |  | 5 |  | 5 |  | 5 |  | 1 | 5 | 5 | 5 |  |  | 

— patent US6472348B1, “Pyridone derivatives and herbicides” (Kumiai Chemical Industry Co., Ltd., priority 1996, dated 2002)
